The source made the active and inactive calls.
Assays:
[1] = Trypanosoma cruzi growth suppression in host cells – NIH3T3 host cells, beta-gal luminescence, confirmation (AID 2044); type: functional, cell-based;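 also: intracellular parasites grown in NIH/3T3 mouse fibroblasts as host cells; luminescent beta-galactosidase reporter signal from transgenic T. cruzi replicating inside host cells; inhibitors lower the luminescence signal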
[2] = NIH3T3 cell viability loss – ATP luminescence, mouse fibroblasts, counter-screen, dose response (AID 2010); type: functional, cell-based;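 also: cells exposed to compound for about 90 hours before reading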
Fatty acid synthase [3] = biological target: T1, Fatty acid synthase (Homo sapiens, UniProt P49327); test: inhibition of human FAS-TE enzyme activity – biochemical, endpoint fluorescence intensity, uHTS hits, dose response (AID 624327); type: functional;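 also: fluorescence from hydrolysis of an O-methyl fluorescein acyl ester substrate by the enzyme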
T1 sequence (P49327 whole entry): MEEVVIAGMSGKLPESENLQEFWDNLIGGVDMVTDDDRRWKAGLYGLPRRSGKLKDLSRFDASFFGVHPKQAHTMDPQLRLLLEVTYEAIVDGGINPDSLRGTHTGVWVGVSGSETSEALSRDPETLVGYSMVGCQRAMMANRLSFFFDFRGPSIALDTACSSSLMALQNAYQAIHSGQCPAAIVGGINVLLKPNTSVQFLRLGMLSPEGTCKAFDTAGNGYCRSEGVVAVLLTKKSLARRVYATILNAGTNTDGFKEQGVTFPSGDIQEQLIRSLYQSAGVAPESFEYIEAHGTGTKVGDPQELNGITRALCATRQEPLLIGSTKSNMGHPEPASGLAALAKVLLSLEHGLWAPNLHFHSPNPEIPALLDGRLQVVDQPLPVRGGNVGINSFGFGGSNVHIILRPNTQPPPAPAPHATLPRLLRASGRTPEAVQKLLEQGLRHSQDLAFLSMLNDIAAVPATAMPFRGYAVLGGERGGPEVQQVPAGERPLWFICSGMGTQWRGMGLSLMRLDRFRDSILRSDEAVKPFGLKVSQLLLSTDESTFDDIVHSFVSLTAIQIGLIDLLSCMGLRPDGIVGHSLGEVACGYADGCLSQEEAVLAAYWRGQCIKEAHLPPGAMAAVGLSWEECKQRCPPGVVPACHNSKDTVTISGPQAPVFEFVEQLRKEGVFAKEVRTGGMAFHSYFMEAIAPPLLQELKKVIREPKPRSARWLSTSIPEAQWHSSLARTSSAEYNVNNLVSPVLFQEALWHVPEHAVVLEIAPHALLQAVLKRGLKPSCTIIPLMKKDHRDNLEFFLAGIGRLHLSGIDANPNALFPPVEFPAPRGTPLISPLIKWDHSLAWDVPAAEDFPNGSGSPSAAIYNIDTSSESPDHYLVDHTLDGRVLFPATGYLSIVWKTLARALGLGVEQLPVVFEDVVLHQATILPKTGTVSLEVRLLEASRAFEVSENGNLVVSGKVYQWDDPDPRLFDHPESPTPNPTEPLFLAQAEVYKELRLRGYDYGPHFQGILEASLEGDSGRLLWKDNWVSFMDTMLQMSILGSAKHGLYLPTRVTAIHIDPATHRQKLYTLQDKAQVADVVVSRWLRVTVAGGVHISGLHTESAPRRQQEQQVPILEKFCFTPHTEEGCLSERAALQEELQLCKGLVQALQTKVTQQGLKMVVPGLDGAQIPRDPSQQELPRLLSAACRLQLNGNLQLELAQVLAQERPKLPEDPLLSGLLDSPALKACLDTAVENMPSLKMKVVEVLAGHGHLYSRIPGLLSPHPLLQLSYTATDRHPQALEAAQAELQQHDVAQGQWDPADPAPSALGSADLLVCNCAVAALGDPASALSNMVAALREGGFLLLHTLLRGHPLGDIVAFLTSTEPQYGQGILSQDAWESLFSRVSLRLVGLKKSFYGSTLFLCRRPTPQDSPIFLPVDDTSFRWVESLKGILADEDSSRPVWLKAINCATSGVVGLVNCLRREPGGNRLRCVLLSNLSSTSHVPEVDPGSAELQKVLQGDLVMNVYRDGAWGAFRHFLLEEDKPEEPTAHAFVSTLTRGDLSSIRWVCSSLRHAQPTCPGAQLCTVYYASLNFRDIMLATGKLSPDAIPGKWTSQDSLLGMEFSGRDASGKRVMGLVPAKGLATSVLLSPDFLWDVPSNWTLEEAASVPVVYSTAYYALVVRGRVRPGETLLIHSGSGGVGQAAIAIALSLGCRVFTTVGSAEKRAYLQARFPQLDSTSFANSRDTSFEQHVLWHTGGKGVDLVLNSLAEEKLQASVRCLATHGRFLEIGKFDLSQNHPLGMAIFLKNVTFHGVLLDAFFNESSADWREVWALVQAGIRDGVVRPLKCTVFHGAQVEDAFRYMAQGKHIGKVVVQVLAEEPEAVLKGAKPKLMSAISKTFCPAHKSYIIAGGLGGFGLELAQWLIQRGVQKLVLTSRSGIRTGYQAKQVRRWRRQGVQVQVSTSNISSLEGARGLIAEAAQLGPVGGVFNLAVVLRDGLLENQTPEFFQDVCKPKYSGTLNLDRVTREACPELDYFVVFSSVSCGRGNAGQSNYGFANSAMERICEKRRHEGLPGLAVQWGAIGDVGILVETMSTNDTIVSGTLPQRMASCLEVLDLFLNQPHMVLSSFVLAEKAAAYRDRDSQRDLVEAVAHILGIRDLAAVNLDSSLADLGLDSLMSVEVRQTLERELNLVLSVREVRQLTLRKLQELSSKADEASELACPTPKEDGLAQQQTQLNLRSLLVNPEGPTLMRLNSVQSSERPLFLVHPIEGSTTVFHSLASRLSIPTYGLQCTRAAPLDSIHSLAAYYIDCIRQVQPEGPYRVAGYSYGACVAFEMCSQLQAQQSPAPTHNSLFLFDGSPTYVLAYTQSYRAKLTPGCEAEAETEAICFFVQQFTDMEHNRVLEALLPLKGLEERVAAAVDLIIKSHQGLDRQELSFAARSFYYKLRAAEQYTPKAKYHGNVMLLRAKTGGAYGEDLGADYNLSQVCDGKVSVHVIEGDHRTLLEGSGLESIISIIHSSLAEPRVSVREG

Fatty acid synthase [4] = biological target: T1, Fatty acid synthase; test: inhibition of human FAS-TE enzyme activity – biochemical, kinetic fluorescence intensity, dose response (AID 624326); type: functional;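 also: rate of fluorescence rise from hydrolysis of a fluorogenic O-methyl fluorescein ester substrate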
cells [5] = test: cells
HEK293 [6] = test: inhibition of NOD1-driven NF-kB reporter – cell-based, luminescence, uHTS, primary screen (AID 1578); type: functional; conditions: Homo sapiens
BJ [7] = test: BJ-TERT fibroblast viability loss – cell-based, RAS-independent, luminescence, dose response (AID 1933); type: functional; conditions: Homo sapiens
HEK293 [8] = test: cells; type: functional, cell-based; conditions: Homo sapiens
BJ [9] = test: cells; type: functional, cell-based; conditions: Homo sapiens
HEK293 [10] = test: cells; type: functional, cell-based; conditions: Homo sapiens; remark: listed apart in the source
HEK293 [11] = test: NOD2 signaling inhibitors in MDP-stimulated cells, cell-based, uHTS, luminescence (AID 2001); type: functional; conditions: Homo sapiens
BJ [12] = test: BJ-TERT-LT-ST fibroblast viability loss – cell-based, RAS-independent, luminescence, dose response (AID 1935); type: functional; conditions: Homo sapiens;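 also: BJ fibroblasts immortalized with TERT plus LT and ST oncogenes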
[13] = DRD fibroblast viability loss – cell-based, non-viral oncogenic, luminescence, dose response (AID 1934); type: functional; conditions: Homo sapiens
[14] = HEK-293T viability loss after treatment – luminescence, T-cell screen hits, cytotoxicity control for TCR NF-kB inhibitor project, dose response (AID 489026); type: functional, cell-based;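 also: cells exposed to compound about 14 hours before the viability readout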
BJ [15] = test: growth inhibition of engineered Ras-driven BJ cells – cell-based, alamar blue fluorescence, cherrypicked samples, dose response (AID 2631); type: functional; conditions: Homo sapiens;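 also: confirmatory dose-response assay in RAS-dependent BJ fibroblasts engineered with TERT, LT and ST, with cytotoxicity read by fluorescence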
Paired box protein Pax-8 = Paired box protein Pax-8 (Homo sapiens, UniProt Q06710); test: PAX8 transcriptional activity inhibition in RMG-I – RMG-I cells, luciferase, cherry-pick, dose response (AID 687027); type: functional, cell-based;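 also: luciferase reporter driven by Pax8 target thyroperoxidase promoter measured by SteadyGlo luminescence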
Paired box protein Pax-8, sequence (Q06710 whole entry): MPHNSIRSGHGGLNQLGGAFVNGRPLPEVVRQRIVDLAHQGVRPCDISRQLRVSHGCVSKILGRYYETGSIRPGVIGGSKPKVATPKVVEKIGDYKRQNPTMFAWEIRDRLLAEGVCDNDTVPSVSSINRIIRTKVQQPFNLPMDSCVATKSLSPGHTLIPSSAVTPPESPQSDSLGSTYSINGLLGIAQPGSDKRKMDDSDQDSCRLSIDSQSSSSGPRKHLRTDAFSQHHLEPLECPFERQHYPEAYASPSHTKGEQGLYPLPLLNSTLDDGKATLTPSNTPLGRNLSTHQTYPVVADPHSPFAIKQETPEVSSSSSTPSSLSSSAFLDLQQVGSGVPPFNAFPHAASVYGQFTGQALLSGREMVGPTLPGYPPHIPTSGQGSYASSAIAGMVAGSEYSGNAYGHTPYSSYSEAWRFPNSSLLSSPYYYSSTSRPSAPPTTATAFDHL

[16] = general cell-killing toxicity readout – plate reader, dry powder samples, cytotoxicity control for PAX8 inhibitor project, dose response (AID 743021); type: functional, cell-based
[17] = biological target: Mitogen-activated protein kinase 10 (Homo sapiens, UniProt P53779); test: Dose response biochemical screening assay for inhibitors of c-Jun N-Terminal Kinase 3 (JNK3). [Related pubchem assays: 746 ]
Mitogen-activated protein kinase 10, sequence (P53779 whole entry): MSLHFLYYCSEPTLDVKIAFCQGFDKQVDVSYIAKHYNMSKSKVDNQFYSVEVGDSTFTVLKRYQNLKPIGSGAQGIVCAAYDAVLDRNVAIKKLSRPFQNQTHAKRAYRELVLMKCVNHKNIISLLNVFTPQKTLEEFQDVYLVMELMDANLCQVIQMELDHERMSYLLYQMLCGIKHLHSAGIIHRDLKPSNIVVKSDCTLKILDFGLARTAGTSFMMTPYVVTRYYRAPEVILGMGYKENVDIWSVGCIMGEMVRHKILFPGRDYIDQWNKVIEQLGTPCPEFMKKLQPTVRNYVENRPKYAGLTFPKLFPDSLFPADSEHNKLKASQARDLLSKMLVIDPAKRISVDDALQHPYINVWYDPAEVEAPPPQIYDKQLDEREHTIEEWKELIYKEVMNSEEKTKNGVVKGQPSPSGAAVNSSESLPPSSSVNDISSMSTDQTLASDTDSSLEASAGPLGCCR

INS1 = test: INS-1E survival protection against cytokine death – cell-based, luminescence, retest, dose response (AID 449756); type: functional; conditions: Rattus norvegicus;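 also: cell death triggered by IL-1 beta plus TNF-alpha plus IFN-gamma mixture; protective hits raise ATP signal compared with cytokine alone wells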
[18] = reduction of Shn3 3'UTR-driven luciferase in osteoblasts – cell-based, Clone20 osteoblasts, firefly luciferase, cherry-picked, dose response (AID 624132); type: functional;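 also: firefly luciferase luminescence from reporter carrying the Shn3 3'UTR in osteoblasts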
[19] = loss of viability in HepG2 cells – cell-based, CellTiter-Glo, cherry-picked, cytotoxicity control for Shn3 inhibitor project, dose response (AID 624134); type: functional
[20] = non-specific 3'UTR reporter inhibition in Clone20-Shn3RL – cell-based, Renilla luciferase, cherry-picked, counter-screen for Shn3 inhibitor project, dose response (AID 624133); type: functional
[21] = biological target: T2, COUP transcription factor 2 (Homo sapiens, UniProt P24468); test: Luminescence-based cell-based high throughput dose response assay to identify inhibitors of COUP-TFII (NR2F2).; type: functional;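 also: HEK293 cells transiently cotransfected with COUP-TFII expression vector and reporter; luciferase reporter luminescence driven by COUP-TFII from the pX2-168 reporter plasmid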
T2 sequence (P24468 whole entry): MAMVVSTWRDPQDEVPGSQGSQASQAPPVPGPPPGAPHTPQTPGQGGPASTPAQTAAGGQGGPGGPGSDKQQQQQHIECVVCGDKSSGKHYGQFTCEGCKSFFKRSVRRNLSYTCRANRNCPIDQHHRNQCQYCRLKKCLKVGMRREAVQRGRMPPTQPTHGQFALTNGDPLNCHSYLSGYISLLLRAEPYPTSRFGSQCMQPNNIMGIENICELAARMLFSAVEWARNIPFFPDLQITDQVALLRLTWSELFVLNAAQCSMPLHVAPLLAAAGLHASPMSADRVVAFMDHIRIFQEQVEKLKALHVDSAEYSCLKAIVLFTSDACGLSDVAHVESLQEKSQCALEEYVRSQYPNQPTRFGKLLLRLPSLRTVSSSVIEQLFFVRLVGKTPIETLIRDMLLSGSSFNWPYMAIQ

[22] = A549 cell cytotoxicity, dose response, cytotoxicity control, plate reader, cherry-pick, antagonist series (AID 743412); type: functional, cell-based
[23] = toxicity toward HepG2 liver cells – cell-based, plate reader, cherry-pick, antagonist series, cytotoxicity control, dose response (AID 743416); type: functional
[24] = blockers of bursicon-stimulated LGR2 cAMP reporter – cell-based, HEK293, CRE-luciferase reporter, cherry pick, set 2, dose response (AID 743343); type: functional;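 also: transfected cells were stimulated with diluted bursicon conditioned medium after compound addition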
[25] = blockade of melanocortin 4 receptor signaling – cell-based, plate reader, cherry pick, counter-screen for LGR2 antagonist project, dose response (AID 743444); type: functional;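 also: transfected HEK 293 cells stimulated with alpha-MSH peptide; potency of inhibitors of the alpha-MSH evoked signal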
[26] = biological target: NAD-dependent protein deacylase sirtuin-5, mitochondrial (Homo sapiens, UniProt Q9NXA8); test: sirtuin-5 deacylation blockers, concentration series – biochemical, fluorescence imaging, cherry-pick, set 5, dose response (AID 720591);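 also: desuccinylation of succinyl peptide AMC substrate read as fluorescence after trypsin release; potency of inhibitors that lower fluorescence and may act on trypsin instead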
NAD-dependent protein deacylase sirtuin-5, mitochondrial, sequence (Q9NXA8 whole entry, the tested form may be a part): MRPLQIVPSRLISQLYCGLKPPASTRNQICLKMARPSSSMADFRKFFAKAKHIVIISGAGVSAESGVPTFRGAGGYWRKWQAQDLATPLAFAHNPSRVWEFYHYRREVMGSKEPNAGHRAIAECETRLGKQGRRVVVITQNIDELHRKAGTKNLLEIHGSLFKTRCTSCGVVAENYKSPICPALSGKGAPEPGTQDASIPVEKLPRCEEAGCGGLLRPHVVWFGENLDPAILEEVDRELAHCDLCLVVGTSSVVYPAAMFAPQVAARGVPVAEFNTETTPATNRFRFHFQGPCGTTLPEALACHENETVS

[27] = biological target: Disintegrin and metalloproteinase domain-containing protein 17 (Homo sapiens, UniProt P78536); test: exosite inhibitors of ADAM17, dose response, biochemical (AID 743260)
Disintegrin and metalloproteinase domain-containing protein 17, sequence (P78536 whole entry, the tested form may be a part): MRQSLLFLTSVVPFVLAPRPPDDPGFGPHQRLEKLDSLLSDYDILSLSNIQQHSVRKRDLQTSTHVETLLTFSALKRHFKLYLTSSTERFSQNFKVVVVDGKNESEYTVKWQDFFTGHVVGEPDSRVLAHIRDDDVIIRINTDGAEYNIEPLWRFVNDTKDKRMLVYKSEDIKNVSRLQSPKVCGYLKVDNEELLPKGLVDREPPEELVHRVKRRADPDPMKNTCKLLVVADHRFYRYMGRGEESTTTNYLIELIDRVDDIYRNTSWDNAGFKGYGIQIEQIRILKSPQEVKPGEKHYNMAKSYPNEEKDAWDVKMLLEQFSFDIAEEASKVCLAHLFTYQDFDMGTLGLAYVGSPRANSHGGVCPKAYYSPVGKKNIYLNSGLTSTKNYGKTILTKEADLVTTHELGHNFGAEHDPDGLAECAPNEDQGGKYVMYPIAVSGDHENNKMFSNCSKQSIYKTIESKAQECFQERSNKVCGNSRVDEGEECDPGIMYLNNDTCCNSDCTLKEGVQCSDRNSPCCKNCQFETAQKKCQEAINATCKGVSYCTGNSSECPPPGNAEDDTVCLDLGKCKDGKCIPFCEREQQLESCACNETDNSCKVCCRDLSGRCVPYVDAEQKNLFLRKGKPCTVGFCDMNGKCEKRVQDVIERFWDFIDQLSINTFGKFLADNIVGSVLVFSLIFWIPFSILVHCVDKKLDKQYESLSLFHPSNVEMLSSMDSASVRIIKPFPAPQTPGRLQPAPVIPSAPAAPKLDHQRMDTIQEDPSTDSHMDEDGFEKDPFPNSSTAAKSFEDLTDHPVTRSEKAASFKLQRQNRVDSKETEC

[28] = inhibition of ADAM10 peptide cleavage – biochemical, FRET peptide substrate, recombinant human ADAM10, selectivity assay for ADAM17 exosite inhibitor project, dose response (AID 743259);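 also: ADAM10 enzyme cleaving a FRET peptide substrate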
[29] = biological target: Peroxisome proliferator-activated receptor gamma/Nuclear receptor coactivator 1 (Homo sapiens, UniProt P37231); test: TR-FRET dose response biochemical High Throughput Screening assay for agonists of the steroid receptor coactivator 1 (SRC-1) recruitment by the peroxisome proliferator-activated receptor gamma (PPAR gamma): non-selective agonists. [Related pubchem assays (depositor defined):AID1300, AID1808, AID504735, AID631]; type: protein assay
[30] = biological target: Peroxisome proliferator-activated receptor gamma/Nuclear receptor coactivator 3 (Homo sapiens, UniProt P37231); test: TR-FRET dose response biochemical High Throughput Screening assay for agonists of the steroid receptor coactivator 3 (SRC-3) recruitment by the peroxisome proliferator-activated receptor gamma (PPAR gamma): non-selective agonists. [Related pubchem assays: 1301 (Confirmation screen.), 1048 (Primary screen.)]; type: functional
[31] = biological target: Peroxisome proliferator-activated receptor gamma/Nuclear receptor coactivator 2 (Homo sapiens, UniProt P37231); test: TR-FRET dose response biochemical High Throughput Screening assay for agonists of the steroid receptor coactivator 2 (SRC-2) recruitment by the peroxisome proliferator-activated receptor gamma (PPAR gamma): non-selective agonists. [Related pubchem assays: 1297, 1032 ]; type: functional
Galanin receptor type 3 = biological target: T3, Galanin receptor type 3 (Homo sapiens, UniProt O60755); test: Fluorescence-based cell-based primary high throughput dose response assay to identify antagonists of the Galanin Receptor 3 (GalR3).; type: functional
T3 sequence (O60755 whole entry): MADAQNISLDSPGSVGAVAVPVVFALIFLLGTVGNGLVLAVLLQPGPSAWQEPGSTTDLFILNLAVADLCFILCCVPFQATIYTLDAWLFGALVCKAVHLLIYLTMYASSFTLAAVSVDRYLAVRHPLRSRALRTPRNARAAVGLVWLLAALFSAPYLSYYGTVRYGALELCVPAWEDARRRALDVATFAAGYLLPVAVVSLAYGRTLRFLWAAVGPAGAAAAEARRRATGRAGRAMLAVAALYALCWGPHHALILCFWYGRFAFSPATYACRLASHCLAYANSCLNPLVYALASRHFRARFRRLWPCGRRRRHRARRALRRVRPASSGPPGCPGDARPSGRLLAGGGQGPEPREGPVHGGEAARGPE

cells [32] = type: functional, cell-based; conditions: HEK-CNG
[33] = OVCAR8 cell viability loss – plate reader, dry powder samples, PAX8 project, dose response (AID 743197); type: functional, cell-based; conditions: OVCAR-8
[34] = P. falciparum Dd2 growth inhibitors, dose response, SYBR Green, cherry-picked samples (AID 1159567); type: functional, cell-based
[35] = growth inhibition of yeast DHODH-expressing 3D7 parasites – SYBR Green, dry powder samples, dose response (AID 1159570); type: functional, cell-based;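 also: parasite growth measured after 72 hours of compound exposure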
[36] = toxicity to human HepG2 hepatoma cells – cell-based, plate reader, dry powder samples, cytotoxicity control, dose response (AID 1159569); type: functional;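 also: inhibitor potency with signal falling toward the positive control level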
[37] = Dd2 malaria parasite growth inhibition potency – SYBR Green, dry powder samples, dose response (AID 1159566); type: functional, cell-based;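 also: potency for growth inhibition with lower SYBR green DNA signal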
[38] = growth inhibition of PfATP4-mutant resistant parasites – NITD609-resistant line, SYBR Green, dry powder, dose response (AID 1159571); type: functional, cell-based;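 also: parasites synchronized at ring stage by sorbitol before testing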
[39] = toxicity to human hepatoma HepG2 cells – cell-based, cherry-picked samples, cytotoxicity control, dose response (AID 1159577); type: functional

O=C(NCCCCc1ccccc1)c1cc([N+](=O)[O-])cc([N+](=O)[O-])c1
EC50 [1]: < 0.1 µM (active)
EC50 [2]: > 60 µM (not active)
IC50 (Fatty acid synthase [3]): 12.4 µM (active)
IC50 (Fatty acid synthase [4]): 8 µM (active)
EC50 (cells [5]): 0.258 µM (active)

COc1ccc(C(C(=O)NC2CCCCC2)N(C(=O)CCl)c2ccc(C)cc2)cc1 (stereo not drawn)
EC50 (HEK293 [6]): 15.6 µM (active)
EC50 (BJ [7]): 0.84 µM (inconclusive)
IC50 (HEK293 [8]): 5.75 µM (active)
EC50 (BJ [9]): 2.63 µM (active)
IC50 (HEK293 [10]): 17.5 µM (active)
IC50 (HEK293 [11]): 7.21 µM (active)
EC50 (BJ [12]): 6.27 µM (active)
EC50 [13]: 0.748 µM (active)
IC50 [14]: > 80 µM (inactive)
EC50 (BJ [15]): 9.18 µM (active)
AC50 (Paired box protein Pax-8): 0.533 µM (active)
AC50 [16]: 0.827 µM (active)

CCCc1cc(O)n2c(n1)nc1ccccc12
IC50 [17]: 35 µM (not active)

Cn1nc([N+](=O)[O-])nc1Sc1cccc2cccnc12
EC50 [1]: < 0.1 µM (active)
EC50 [2]: > 60 µM (not active)
AC50 (INS1): 2.59 µM (active)
EC50 (cells [5]): 0.115 µM (active)

COc1cccc(CN(C)C(=O)c2ccc(OCC(=O)Nc3cccc(C(F)(F)F)c3)c(OC)c2)c1
IC50 [14]: > 80 µM (inactive)
AC50 [18]: 4.93 µM (active)
AC50 [19]: 3.38 µM (active)
AC50 [20]: 14.4 µM (active)
IC50 [21]: 4.57 µM (active)

O=C(Nc1ccc2c(c1)OCCO2)c1ccc(Cl)cc1Cl
AC50 [22]: > 52 µM (inactive)
AC50 [23]: > 52 µM (inactive)
AC50 [24]: 11.6 µM (active)
AC50 [25]: 15.2 µM (active)

CN(C)C(=O)c1cc(C(=O)c2ccc(C(F)(F)F)cc2F)c[nH]1
AC50 [26]: > 30 µM (inactive)

Cc1cccc(C2(c3cccc(C)c3)OC(=O)c3ccccc32)c1
AC50 (INS1): 17.7 µM (active)
IC50 [27]: > 69.5 µM (inactive)
IC50 [28]: > 23.2 µM (inactive)

Cc1ccc(S(=O)(=O)N2CCCCC2)cc1NC(=O)CNc1ccc(C(F)(F)F)cc1
IC50 [27]: > 69.5 µM (inactive)
IC50 [28]: 8.89 µM (active)

Cc1cn(S(=O)(=O)c2ccc(Br)c3ccccc23)cn1
EC50 [29]: > 79.4 µM (inactive)
EC50 [30]: > 79.4 µM (not active)
EC50 [31]: > 79.4 µM (not active)
IC50 [17]: 15.5 µM (not active)

CCN1C(=O)/C(=C/c2ccc(C)s2)NC1=S
IC50 [27]: > 69.5 µM (inactive)
IC50 [28]: > 69.5 µM (inactive)

Cc1cc(S(=O)(=O)Nc2ccc(C(=O)NCC3(N4CCCCC4)CCCCC3)cc2)ccc1F
AC50 [26]: > 30 µM (inactive)

Cc1cc(C)c(CN2CCN(C(=O)Cn3cnc4c(OCc5ccccc5)ncnc43)CC2)c(C)c1
IC50 [14]: > 80 µM (inactive)
AC50 (INS1): 3.51 µM (active)
IC50 (Galanin receptor type 3): 2.86 µM (active)
EC50 (cells [32]): > 29.9 µM (inactive)
IC50 [21]: 5.99 µM (active)

C[C@H]1CN([C@@H](C)CO)C(=O)c2c(c3ccccc3n2C)-c2ccccc2CO[C@@H]1CN(C)S(=O)(=O)c1cccc(F)c1
AC50 (Paired box protein Pax-8): 11.6 µM (active)
AC50 [33]: 37.3 µM (active)
AC50 [34]: 4.88 µM (active)

CCC(=O)N1CC2(CCN(C(=O)Nc3ccccc3F)CC2)c2c([nH]c3cc(OC)ccc23)[C@H]1CO
AC50 [35]: 1.2 µM (active)
AC50 [36]: 50.4 µM (active)
AC50 [34]: 1.24 µM (active)
AC50 [37]: 1.1 µM (active)
AC50 [38]: 0.934 µM (active)

C[C@H]1CN([C@@H](C)CO)C(=O)c2cc(C#CCc3ccccc3)cnc2O[C@@H]1CN(C)CC1CCCC1
AC50 [34]: 4.29 µM (active)
AC50 [39]: 11.2 µM (active)

COc1ccccc1C#Cc1ccc([C@H]2[C@@H](C#N)N(C(=O)C3CCCC3)[C@@H]2CO)cc1
AC50 [34]: 5.1 µM (active)
AC50 [39]: > 39 µM (inactive)

CCC(=O)N1[C@H](CO)[C@H](c2ccc(C3=CCCC3)cc2)[C@H]1CNCC1CCCC1
AC50 [34]: 3.77 µM (active)
AC50 [39]: > 39 µM (inactive)

COc1ccc(NC(=O)Nc2cccc3c2O[C@H](CN(C)C(=O)Nc2cccc4ccccc24)[C@H](C)CN([C@@H](C)CO)C3=O)cc1
AC50 [35]: 1.64 µM (active)
AC50 [36]: > 100 µM (inactive)
AC50 [34]: 2.54 µM (active)
AC50 [37]: 0.547 µM (active)
AC50 [38]: 0.971 µM (active)

Reference: ChEMBL document CHEMBL1201862, “PubChem BioAssay data set” (2004)
